{"source": "patent US5705630A", "about": "“2'-methylidenepyrimidine nucleoside compounds” (Yoshitomi Pharmaceutical Industries, Ltd., priority 1988, dated 1998)", "test": "solubility (general statement)", "assay_type": "physicochemical", "settings": "with respect to pharmaceutical production"}
{"smiles": "C=C1[C@H](n2ccc(N)nc2=O)O[C@H](CO)[C@H]1O", "note": "[2'-deoxy-2'-methylidenecytidine]", "values": [{"measurement": "solubility", "result": "inferior in solubility"}]}
